# US20260216362A1, “ANTI-BDCA2 ANTIBODY-DRUG CONJUGATE AND USE THEREOF” (DUALITY BIOLOGICS (SHANGHAI) CO., LTD., priority 2022, published 2026)
# Tests used:
# [1] = system: cynomolgus monkey whole blood stimulated with CpG-A; assay: TNF-α after in vitro CpG-A stimulation of whole blood of dosed cynomolgus monkeys; format: in vivo; details: 10 mg/kg i.v.; CpGA-stimulated whole blood
# Description: Cytokine expression was detected by whole blood stimulation in vitro.
# The cells were cultured at 37° C. for 18 h, and the supernatant was collected. The TNF-α and IFN-α concentration levels in the supernatant were detected using an ELISA kit.
# TNF-α concentration assay was performed using a R&D Primate TNF-α DuoSet ELISA kit (Cat. No. DY1070). 50 μL of serially diluted cytokine standard was added to each standard well, 50 μL of test sample was added to each sample well, and 50 μL of PBS was added to each blank control well. The cells were incubated at 37° C. for 2 h. The plate was washed 3 times: the liquid in each well was removed, and 300 μL of 1× PBST buffer working solution was added to each well; and after 1 minute of residence, the liquid in each well was discarded. 100 μL of detection antibody working solution was added to each well, and the cells were incubated at 37° C. for 1 h. […] The reading at wavelength 450 nm was detected using a Molecular device spectra max plus384 instrument within 10 min after the reaction was stopped.
# Evaluation criteria in FIGS. 12-13: the average expression level changes of IFNα/TNFα were evaluated after in vitro stimulation of the whole blood with CpGA at 200 μg/mL on days 0-33 after administration. […]
# [2] = system: human peripheral blood mononuclear cells; assay: Inhibition of CpG-A-induced TNF-α production from human peripheral blood mononuclear cells by BDCA2-ADC; format: cell-based; details: 0.5 μM CpG-A, 24 h
# Description: The inhibitory effects of the antibody-drug conjugate molecules of the present application on the production from peripheral blood mononuclear cells were detected. Peripheral blood mononuclear cells produce a large number of cytokines after the stimulation of the TLR9 agonist CpG-A. The peripheral blood mononuclear cells were treated in vitro with the BDCA2 antibody-drug conjugate at different concentrations, and IFNα and TNFα produced by the peripheral blood mononuclear cells were quantitatively detected after the stimulation of 0.5 μM CpG-A for a certain period of time. The in vitro activity of the ligand-drug conjugates was evaluated based on the extent of cytokine inhibition.
# The cryopreserved human peripheral blood mononuclear cells were thawed, resuspended in a complete culture medium and counted, and the cell suspension was adjusted to 2.5×10^6 cells/mL with the culture medium and cultured overnight. […] The supernatant was collected, and the TNF-α and IFN-α concentration levels in the supernatant were detected using an ELISA kit. Dose-response data were fitted to an S-shaped curve using non-linear regression, and IC50 values were calculated.
# TNF-α concentration assay was performed using a Dakewe TNF-α ELISA kit (Cat. No. 1117202). […] The reading at wavelength 450 nm was detected using an M2e instrument within 10 min after the termination. […]
# [3] = system: pDCs in the peripheral blood of cynomolgus monkeys; assay: pDC percentage and BDCA2 expression level on pDCs in peripheral blood of dosed cynomolgus monkeys by FACS; details: 10 mg/kg intravenous
# Description: Nine female cynomolgus monkeys were divided into 3 groups, 3 cynomolgus monkeys per group.
# The pDC percentage in the peripheral blood and the BDCA2 expression level on the surface of pDCs were detected by FACS.
# Venous blood of the cynomolgus monkeys was collected by using a heparin anticoagulation tube, 6 mL of red blood cell lysis buffer was added to 300 μL of the blood, and the resulting mixture was placed at room temperature for 10 min. The cells were collected by centrifugation at 400 g for 5 min at room temperature. The cells were washed with PBS and resuspended in 100 μL of cell staining buffer (PBS+1% FBS). 5 μL of Fc Block was added to the cell suspension and left to stand at 4° C. for 10 min. […] The cells were washed twice with PBS, resuspended in 200 μL of the cell staining buffer, and analyzed by using a flow cytometer.
substance,measurement,setting,value
"BIIB059: reference antibody specifically binding to BDCA2, sequence derived from U.S. Pat. No. 9,902,775B2; SEQ ID NO: 25 and 26 [reference compound]",TNFα expression level compared to the blank control group,[1],no significant change
same,inhibitory effect on TNF-α secretion,[2],did not have an inhibitory effect
same,BDCA2 level on the surface of pDCs in the blood compared to the blank control,[3],reduced
same,pDC percentage in the blood compared to the blank control,[3],no significant change
